Reference: US8304455B2, “Compositions and methods of their use for improving the condition and appearance of skin” (Avon Products, Inc, priority 2004, dated 2012)
Several values for one entry are separate records, joined by “and”; a condition that tells them apart may be missing. Identical values can stand only once.

What was measured:
Type in all cases: cell-based
Details in all cases: normal human epidermal keratinocytes; transcript numbers normalized to vehicle control; replicate values
Beta-catenin = experiment: PCR gene expression, Beta-catenin
Description: (§1) A vial of cryopreserved normal human epidermal keratinocytes (Adult or Neonatal) was removed from liquid N2 and placed in a 37° C. water bath for 1-2 minutes, or until completely thawed. The vial was then removed from the water bath and the excess water was wiped off. The vial was placed into a cell culture hood for sterility. The vial was wiped with 70% ethanol to air dry for 30 seconds. While in the cell culture hood, the cells were removed from the vial and placed into a 50 ml tube. The appropriate growth media (5 ml) was added drop wise while agitating the tube, allowing uniform mixture of the cells and medium while limiting cell death due to osmotic changes caused by freezing media, Medium (25 ml) was added to the 50 ml tube to bring the volume up to 30 ml. Into two 75 cm2 flasks, medium/cell solution (15 ml) was added, or to six 25 cm2 flasks, medium (5 ml) was added. Flasks were recapped and placed horizontally in a 37° C. humidified incubator with 5% CO2 for 24 hours. After 24 hours, the old medium was aspirated and fresh room temperature growth medium (15 ml) was added onto the cells. Prior to adding the fresh growth medium, it was brought up to room temperature using a room temperature water bath without the cover. The flasks containing cells with fresh media were placed back into the 37° C. incubator. Flasks containing the old media was replaced with fresh media repeatedly until the desired confluence (75%) was reached.
(§2) When the cells reached the desired confluency, they were removed from the incubator and the media was aspirated off using a vacuum trap. Hank's Buffered Saline Solution (HBSS; 10 ml of 1X; Mediatech, Inc.; Herndon, Va.) was placed into the flask and the entire surface area rinsed. The HBSS was then aspirated. Trypsin (1X; Mediatech, Inc.) was added in a 5 ml volume. The flasks were placed back into the incubator for 8 minutes. The flasks were taken from the incubator and 15 ml of Trypsin Neutralizing Solution (1X; Cascade Biologics; Portland, Oreg.) was added to each flask to neutralize the trypsin. […]

Hyaluronic acid synthase = experiment: PCR gene expression, Hyaluronic acid synthase; set-up: key: (—): Not statistically significant
Description: as §1, §2

Collagen 4 = experiment: PCR gene expression, Collagen 4
Description: as §1, §2

Frizzled 10 = experiment: PCR gene expression, Frizzled 10
Description: as §1, §2

Collagen 7 = experiment: PCR gene expression, Collagen 7
Description: as §1, §2

Estrogen Receptor alpha = experiment: PCR gene expression, Estrogen Receptor alpha
Description: as §1, §2

Compound | Beta-Catenin Transcript # (Beta-catenin) | Hyaluronic acid synthase Transcript # (Hyaluronic acid synthase) | Collagen 4 Transcript # (Collagen 4) | Frizzled 10 Transcript # (Frizzled 10) | Collagen 7 Transcript # (Collagen 7) | Estrogen Receptor alpha Transcript # (Estrogen Receptor alpha)
CCNC(=O)CC[C@H](N)C(=O)O [L-Theanine, L-theanine] | 10.31 and 8.678 (2×) | 10.53 and 7.971 and 8.113 | 10.79 and 9.561 and 10.49 | 17.68 and 16.48 and 17.08 | 12.87 and 10.72 and 11.44 | 13.03 and 12.39 and 7.627
CSC[C@H](N)C(=O)O [S-Methyl-L-Cysteine] | 8.657 and 10.39 and 9.955 | — | 9.845 and 10.83 and 9.353 | 18.65 and 16.26 and 18.41 | 14.83 and 16.55 (2×) | 6.087 and 5.073
N[C@@H](CSc1ccccc1)C(=O)O [S-Phenyl-L-Cysteine] | 14.67 and 15.49 and 11.41 | 3.637 (2×) and 3.423 | 7.416 and 8.343 and 8.807 | 34.68 and 26.67 and 30.62 | 35.46 and 34.38 and 30.09 | 8.12 and 10.99 and 8.598
